# Source: ChEMBL document CHEMBL2029292, “Identification of novel adenosine A(2A) receptor antagonists by virtual screening” (J Med Chem, 2012)
# Target: Adenosine receptor A2a (Homo sapiens, UniProt P29274)
# Experiment: Displacement of [3H]ZM241385 from human A2A receptor expressed in HEK293 cells after 1 hr by liquid scintillation counting
# Format: cell-based
# Sequence of Adenosine receptor A2a (P29274 whole entry): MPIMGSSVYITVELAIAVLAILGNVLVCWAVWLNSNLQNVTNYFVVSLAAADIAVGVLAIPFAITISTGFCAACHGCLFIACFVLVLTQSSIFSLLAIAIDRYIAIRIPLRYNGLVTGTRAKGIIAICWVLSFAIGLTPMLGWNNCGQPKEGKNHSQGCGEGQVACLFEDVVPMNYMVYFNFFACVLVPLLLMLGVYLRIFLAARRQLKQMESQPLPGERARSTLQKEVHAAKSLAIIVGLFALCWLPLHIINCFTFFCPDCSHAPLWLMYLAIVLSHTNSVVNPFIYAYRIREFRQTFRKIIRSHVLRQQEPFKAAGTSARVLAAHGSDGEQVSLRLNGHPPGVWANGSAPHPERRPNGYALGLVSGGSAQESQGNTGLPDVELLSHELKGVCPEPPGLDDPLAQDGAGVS
row,SMILES,Ki [µM]
1,Cc1cc(O)c(C(C)C)cc1N=C1CSC(=O)N1,1.78
2,COc1ccc(N2CC(C(=O)NC(Cc3ccccc3)C(=O)O)CC2=O)cc1 (stereo unspecified),2.95
3,COCCN1C(=O)c2[nH]nc(-c3ccccc3O)c2C1c1ccc(F)cc1 (stereo unspecified),1.23
4,CC1CC(c2ccccc2)n2nc(N3C(=O)C4CC=CCC4C3=O)nc2N1 (stereo unspecified),2
5,CCc1cc2c(=O)c(-c3nc(C)cs3)coc2cc1OCC(=O)OC(C)C,0.0151
6,CSc1nc2nc3c(c(O)n2n1)CN(Cc1ccccc1)CC3,0.708
7,COC1CCN(c2cccc(-c3nc(N)nc(-c4ccccc4O)n3)c2)CC1,0.00158
8,Nc1cccc(CC2SC(=O)NC2=O)c1 (stereo unspecified),7.08
9,NC(c1csc(Nc2nncc3ccccc23)n1)c1ccccc1Cl (stereo unspecified),2.4
10,O=C(c1ccc(F)cc1)c1c[nH]c(C(=O)NCCCn2ccnc2)c1,4.68
11,Cc1csc(-c2coc3cc(OCC(=O)O)cc(C)c3c2=O)n1,2.24
12,CN1CCN(C(=O)c2cccc(-c3nc(N)nc(-c4ccccc4O)n3)c2)CC1,0.00102
13,CC(C)c1nc(N)nc(-c2ccccc2O)n1,0.0123
14,CC(=O)Oc1cc(C)c2c(=O)c(-c3nc(C)cs3)coc2c1,0.0339
15,Cc1ccsc1/C=C/c1nc(N)nc(-c2ccccc2O)n1,0.00347

# Tested on: HEK293
# Experiment: Selectivity ratio of Ki for human A1 receptor expressed in CHO cells to Ki for human A2A receptor expressed in HEK293 cells
# Format: cell-based
row,SMILES,Ratio Ki
1,CCc1cc2c(=O)c(-c3nc(C)cs3)coc2cc1OCC(=O)OC(C)C,> 100
2,COC1CCN(c2cccc(-c3nc(N)nc(-c4ccccc4O)n3)c2)CC1,19
3,CN1CCN(C(=O)c2cccc(-c3nc(N)nc(-c4ccccc4O)n3)c2)CC1,59
4,CC(C)c1nc(N)nc(-c2ccccc2O)n1,37
5,CC(=O)Oc1cc(C)c2c(=O)c(-c3nc(C)cs3)coc2c1,13
6,Cc1ccsc1/C=C/c1nc(N)nc(-c2ccccc2O)n1,9.5
